Among the data in patent US20190100517A1, “COMPOUNDS” (GlaxoSmithKline Intellectual Property Development Limited, priority 2015, published 2019) are IC50 values, retold here.

“And” between values parts separate entries of the source, which are not always exact repeats. Identical values can stand only once.

Chain of human KMO (O15229 whole entry): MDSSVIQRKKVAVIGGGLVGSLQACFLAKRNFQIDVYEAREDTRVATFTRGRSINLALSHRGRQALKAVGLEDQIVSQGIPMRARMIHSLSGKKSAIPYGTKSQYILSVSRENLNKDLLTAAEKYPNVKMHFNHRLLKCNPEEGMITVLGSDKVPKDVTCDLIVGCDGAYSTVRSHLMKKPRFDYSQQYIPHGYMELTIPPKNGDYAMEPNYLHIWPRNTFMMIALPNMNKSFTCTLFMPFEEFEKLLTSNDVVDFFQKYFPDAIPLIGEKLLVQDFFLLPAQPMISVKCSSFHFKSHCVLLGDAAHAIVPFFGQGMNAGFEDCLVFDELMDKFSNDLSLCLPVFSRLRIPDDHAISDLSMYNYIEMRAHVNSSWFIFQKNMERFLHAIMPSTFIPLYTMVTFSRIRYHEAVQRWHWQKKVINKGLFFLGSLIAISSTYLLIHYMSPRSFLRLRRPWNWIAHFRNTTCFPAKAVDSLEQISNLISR

This test has as its target human KMO (Homo sapiens, UniProt O15229). Briefly: KMO MS Rapidfire assay (RapidFire high-throughput mass spectrometry, Method 1 or Method 2).
Procedure: KMO inhibition can be determined by MS Rapidfire assay performed on the human cloned enzyme as described herein.
pFastbac1 GST-KMO was transposed into the baculovirus genome using the BAC-to-BAC technology (Invitrogen) and bacmid DNA was prepared and transfected into Spodoptera frugiperda (Sf9) cells using Cellfectin II (Invitrogen).
A P1 virus stock was generated from a single clone and used to infect 3×1.5 L cultures of Sf9 cells in 3 L Corning Fernbach flasks. The Sf9 cells were grown in Hyclone SFX media (Thermo Scientific) to about 3×10^6 cells/ml and were infected at a nominal multiplicity of infection of 3. Cells were harvested after 48 hours and disrupted by blending in 50 mM HEPES, pH 7.4, 1 mM EDTA buffer containing protease inhibitors. A low speed spin (400 g) was used to remove cell debris, followed by a high speed spin (75 000 g) to pellet the membranes. The membranes were purified in a discontinuous sucrose density gradient by re-suspending in 10% (w/v) sucrose and layering over 40% (w/v) sucrose, both in the above buffer. This was centrifuged at 150 000 g and the purified membranes were taken from the interface, collected by centrifugation at 100 000 g, resuspended in buffer and aliquoted for storage at −80° C.
100 nL DMSO was dispensed into columns 6 and 18 for high and low controls, respectively, with prior inactivation of the enzyme in column 18 by pre-dispense of 30 μL of 0.5% (v/v) TFA.
Conditions for the assay of human KMO using isolated KMO-membranes were 50 mM HEPES, pH 7.5, 2 mM DTT, 1 mM EDTA, 100 μM CHAPS, 200 μM NADPH, 10 μM Kynurenine and 8 μg/ml KMO-membranes in a total reaction volume of 10 μL.
Assays were performed by initially dispensing 5 μL of a 2× Enzyme solution (16 μg/ml KMO-membranes in 50 mM HEPES, pH 7.5, 2 mM DTT, 2 mM EDTA, 200 μM CHAPS) into plates containing 100 nL compounds and incubating for 10 min at ambient temperature. Reactions were initiated by addition of 5 μL of 2× Substrate solution (400 μM NADPH, 20 μM Kynurenine in 50 mM HEPES, pH 7.5, 2 mM DTT) and incubated for 2 h at room temperature before quenching the reaction with 30 μL of 0.5% (v/v) TFA. Plates were centrifuged at 2500 rpm for 10 min before analysis. All additions were made using a Multidrop Combi dispenser (Thermo Fisher Scientific).
Quenched assay plates were transferred to a high-throughput RapidFire200 integrated autosampler/solid-phase extraction (SPE) system (Agilent Technologies, Wakefield, Mass.). […] Analytes were then eluted into the mass spectrometer, in a 3 s elution cycle, using 80% (v/v) acetonitrile/water containing 0.1% (v/v) formic acid, and the cartridge was then equilibrated by washing with water containing 0.1% (v/v) formic acid for 500 ms. This gave a total cycle time of 7 s, enabling analysis of a 384-well plate in approximately 45 min.
Both Kyn and 3-HK were detected using a Sciex AP14000 triple quadrupole mass spectrometer (Applied Biosystems, Concord, Ontario, Canada), equipped with an electrospray interface and operated in positive ion mode. […] The mass spectrometer used an ESI voltage of 5500 V and a source temperature of 600° C., with a dwell time of 50 ms for each transition.
Individual MRM transitions were saved as text files and the extracted ion chromatograms were integrated and processed using the RapidFire® peak integration software (version 3.6).
With `CCC(Oc1cc2sc(=O)n(CCC(=O)O)c2cc1Cl)c1ncc(C)cn1` (single isomer, unassigned) [Example 5, 3-{5-chloro-6-[1-(5-methylpyrimidin-2-yl)propoxy]-2-oxo-2,3-dihydro-1,3-benzothiazol-3-yl}propanoic acid], the concentration for half-maximal inhibition (IC50) is at most 10 nM.
In turn, `CCC(Oc1cc2sc(=O)n(CCC(=O)O)c2cc1Cl)c1ccc(C)cn1` (single isomer, unassigned) [Example 8, 3-{5-chloro-6-[1-(5-methylpyridin-2-yl)propoxy]-2-oxo-2,3-dihydro-1,3-benzothiazol-3-yl}propanoic acid] displayed an IC50 of at most 10 nM.
Then `CC[C@@H](Oc1cc2sc(=O)n(CCC(=O)O)c2cc1Cl)c1ccc(Cl)cn1` (single isomer, unassigned) [Example 9, 3-{5-chloro-6-[1-(5-chloropyridin-2-yl)propoxy]-2-oxo-2,3-dihydro-1,3-benzothhiazol-3-yl}propanoic acid], with at most 10 nM.
`CCC(Oc1cc2sc(=O)n(CCC(=O)O)c2cc1Cl)c1ncc(Cl)cn1` (single isomer, unassigned) [Example 11, 3-{5-chloro-6-[1-(5-chloropyrimidin-2-yl)propoxy]-2-oxo-2,3-dihydro-1,3-benzothiazol-3-yl}propanoic acid] displayed an IC50 of at most 10 nM.
In the case of `CCC(Oc1cc2sc(=O)n(CCC(=O)O)c2cc1Cl)c1cccnn1` (single isomer, unassigned) [Example 14, 3-{5-chloro-2-oxo-6-[1-(pyridazin-3-yl)propoxy]-2,3-dihydro-1,3-benzothiazol-3-yl}propanoic acid] it was at most 10 nM; in that of `Cc1ccc(C(C)Oc2cc3sc(=O)n(CCC(=O)O)c3cc2Cl)nn1` (single isomer, unassigned) [Example 16, 3-{5-chloro-6-[1-(6-methylpyridazin-3-yl)ethoxy]-2-oxo-2,3-dihydro-1,3-benzothiazol-3-yl}propanoic acid], at most 10 nM; in that of `Cc1cnc(C(C)Oc2cc3sc(=O)n(CCC(=O)O)c3cc2Cl)nc1` (single isomer, unassigned) [Example 18, 3-{5-chloro-6-[1-(5-methylpyrimidin-2-yl)ethoxy]-2-oxo-2,3-dihydro-1,3-benzothiazol-3-yl}propanoic acid], at most 10 nM.
Then `CCC(Oc1cc2sc(=O)n(CCC(=O)O)c2cc1Cl)c1ccccn1` (single isomer, unassigned) [Example 19, 3-{5-chloro-2-oxo-6-[1-(pyridin-2-yl)propoxy]-2,3-dihydro-1,3-benzothiazol-3-yl}propanoic acid], with at most 10 nM; and `CC(Oc1cc2sc(=O)n(CCC(=O)O)c2cc1Cl)c1ncc(Cl)cn1` (single isomer, unassigned) [Example 24, 3-{5-chloro-6-[1-(5-chloropyrimidin-2-yl)ethoxy]-2-oxo-2,3-dihydro-1,3-benzothiazol-3-yl}propanoic acid], with at most 10 nM; and `CCc1ccc(C(C)Oc2cc3sc(=O)n(CCC(=O)O)c3cc2Cl)nc1` (single isomer, unassigned) [Example 25, 3-{5-chloro-6-[1-(5-ethylpyridin-2-yl)ethoxy]-2-oxo-2,3-dihydro-1,3-benzothiazol-3-yl}propanoic acid], with at most 10 nM.
As to `CCC(Oc1cc2sc(=O)n(CCC(=O)O)c2cc1Cl)c1ncccn1` (single isomer, unassigned) [Example 29, 3-{5-chloro-2-oxo-6-[1-(pyrimidin-2-yl)propoxy]-2,3-dihydro-1,3-benzothiazol-3-yl}propanoic acid], the IC50 was at most 10 nM.
In the case of `CCC(Oc1cc2sc(=O)n(CCC(=O)O)c2cc1Cl)c1ccc(C)nn1` (single isomer, unassigned) [Example 32, 3-{5-chloro-6-[1-(6-methylpyridazin-3-yl)propoxy]-2-oxo-2,3-dihydro-1,3-benzothiazol-3-yl}propanoic acid] it was at most 10 nM.
Then `C[C@@H](Oc1cc2sc(=O)n(CCC(=O)O)c2cc1Cl)c1ccc(Cl)cn1` [Example 1, 3-(5-chloro-6-[(R)-1-(5-chloropyridin-2-yl)ethoxy]-2-oxobenzo[d]thiazol-3(2H)-yl)propanoic acid], with ≤ 10 nM and 1.26 nM; and `Cc1cnc(COc2cc3sc(=O)n(CCC(=O)O)c3cc2Cl)nc1` [Example 4, 3-{5-chloro-6-[(5-methylpyrimidin-2-yl)methoxy]-2-oxo-2,3-dihydro-1,3-benzothiazol-3-yl}propanoic acid], with at most 10 nM; and `O=C(O)CCn1c(=O)sc2cc(OCc3ccc(Cl)cn3)c(Cl)cc21` [Example 21, 3-{5-chloro-6-[(5-chloropyridin-2-yl)methoxy]-2-oxo-2,3-dihydro-1,3-benzothiazol-3-yl}propanoic acid], with at most 10 nM.
For the molecule `Cc1ccc(COc2cc3sc(=O)n(CCC(=O)O)c3cc2Cl)nn1` [Example 22, 3-{5-chloro-6-[(6-methylpyridazin-3-yl)methoxy]-2-oxo-2,3-dihydro-1,3-benzothiazol-3-yl}propanoic acid], the IC50 is at most 10 nM.
The molecule `O=C(O)CCn1c(=O)sc2cc(OCc3ncc(Cl)cn3)c(Cl)cc21` [Example 27, 3-{5-chloro-6-[(5-chloropyrimidin-2-yl)methoxy]-2-oxo-2,3-dihydro-1,3-benzothiazol-3-yl}propanoic acid] displayed an IC50 of at most 10 nM.
With `Cc1ccc(COc2cc3sc(=O)n(CCC(=O)O)c3cc2Cl)nc1` [Example 30, 3-{5-chloro-6-[(5-methylpyridin-2-yl)methoxy]-2-oxo-2,3-dihydro-1,3-benzothiazol-3-yl}propanoic acid], the IC50 is at most 10 nM.
In the case of `Cc1ccc([C@@H](C)Oc2cc3sc(=O)n(CCC(=O)O)c3cc2Cl)nc1` [Example 33, 3-{5-chloro-6-[(1R)-1-(5-methylpyridin-2-yl)ethoxy]-2-oxo-2,3-dihydro-1,3-benzothiazol-3-yl}propanoic acid] it was at most 10 nM.
